Article PMC9231362 (Viruses, 2022)

Biological target: T1, catL (cathepsin L; rh catL) (Homo sapiens, UniProt P07711)
T1 construct: gene CTSL; incubated on ice 15 min in assay buffer pH 6.0 before use
Assay: fluorogenic protease activity assay
Format: biochemical

T1 sequence (P07711 114-288): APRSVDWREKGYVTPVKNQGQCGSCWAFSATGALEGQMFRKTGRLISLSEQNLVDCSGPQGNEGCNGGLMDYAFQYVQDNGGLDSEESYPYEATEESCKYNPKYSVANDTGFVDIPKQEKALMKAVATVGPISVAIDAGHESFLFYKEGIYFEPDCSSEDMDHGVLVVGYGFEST
T1 sequence (P07711 292-333): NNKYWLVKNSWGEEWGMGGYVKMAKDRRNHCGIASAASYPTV

Compound	IC50 [µM]
C[C@@H]1[C@H](O)[C@@H](C)/C=C/C=C/CC/C=C/C=C/C=C/C=C/[C@H](O[C@@H]2O[C@H](C)[C@@H](O)[C@H](N)[C@@H]2O)C[C@@H]2O[C@](O)(C[C@@H](O)[C@H](O)CC[C@@H](O)C[C@@H](O)C[C@@H](O)CC(=O)O[C@H]1C)C[C@H](O)[C@H]2C(=O)O [Nystatin]	~2
CO[C@H]1/C=C/O[C@@]2(C)Oc3c(C)c(O)c4c(O)c(c(/C=N/N5CCN(C6CCCC6)CC5)c(O)c4c3C2=O)NC(=O)/C(C)=C\C=C\[C@H](C)[C@H](O)[C@@H](C)[C@@H](O)[C@@H](C)[C@H](OC(C)=O)[C@@H]1C [Rifapentine]	~30
